# From US6361788B1, “Synergistic biocide composition” (Thor Chemie GmbH, priority 1997, dated 2002)
# Columns and labels:
# Type in all cases: cell-based
# [1] = test system: standard bacterial inoculum; assay: Preservation of coating composition B, repeated bacterial inoculation, streak evaluation
# Method: The biocides shown in Table XI below were added respectively to 50 g of coating composition A. The stated amounts of biocide refer to the amount of coating composition A. In the MIT/BIT mixtures, the two biocides were present in a weight ratio of 1:1.
# Apart from a blank test without addition of biocide, 1 mL of a standard bacterial inoculum that contained the following bacterial strains was added to each sample of coating composition A:
# The cell density of the inoculum was 10^10 to 3·10^10 cells/mL, and the cell density of the samples was 2·10^8 to 6·10^8 cells/g. The samples were held at 30° C. for 7 days. Then a streak of each sample was produced on a nutrient agar plate, held at 30° C. for 48 h, and then evaluated for bacterial growth. The following evaluation scale was used:
# When the bacterial growth was evaluated as below 6, a second bacterial inoculum of the above-mentioned type was added to the corresponding original 50 g sample and it was again held at 30° C. for 7 days. Then a streak was again produced on a nutrient agar plate, which was again evaluated for its bacterial growth after a holding time of 48 h at 30° C.
# When the bacterial growth of the streak was evaluated as 6 for a sample, the testing of this sample was terminated. As long as a sample had not reached this number, a bacterial inoculum was again added in the above-mentioned manner and the sample was held and tested by means of a streak. This procedure was repeated as necessary, with a maximum of 4 bacterial inocula being added per sample.
# Example 9 was repeated, but using coating composition B instead of coating composition A.
# Coating composition B is a particularly low-emission plaster based on a polymer dispersion commercially available under the designation “Granol KR 3.0 LF” (company Steinwerke Kupferdreh GmbH).
# Escherichia coli = assay: MIC and synergy of MIT and BIT in Müller-Hinton broth, 72 h; settings: for growth of the microorganism: MIT ppm = row head c0; as to growth of the microorganism: key: growth of the microorganism took place (symbol '+'); or not (symbol '−')
# Method: For this purpose, aqueous mixtures were produced with various concentrations of 2-methylisothiazolin-3-one (MIT) and 1,2-benzisothiazolin-3-one (BIT) and the activity of these mixtures on Escherichia coli (International Mycological Institute, Strain No. IMI 362054) was tested.
# In addition to the biocide component and water, the aqueous mixtures contained a nutrient medium, namely a Müller-Hinton broth (commercial product “Merck No. 10393”). The cell density of Escherichia coli was 10^6 cells/mL. The incubation time was 72 h at 25° C. Each sample was incubated on an incubation shaker at 120 rpm.
# (§1) The synergy index is calculated according to the method of F. C. Kull et al., Applied Microbiology, Vol. 9 (1961), p. 538. Here the synergy index is calculated using the following formula:
# (§2) Synergy index SI=Qa/QA+Qb/QB.
# When the synergy index has the value 1, this means that there is an addition of the activity of the two biocides. When the synergy index has a value of less than 1, this means that a synergy of the two biocides exists.
# Aspergillus niger = assay: MIC and synergy of MIT and BIT in Sabouraud maltose broth, 96 h; settings: for growth of the microorganism: MIT ppm = row head c0; as to growth of the microorganism: key: growth of the microorganism took place (symbol '+'); or not (symbol '−')
# Method: as §1, §2
# The synergy of the two active substances MIT and BIT against the microorganism Aspergillus niger is shown as in Example 1.
# The test batches contained a Sabouraud maltose broth as a nutrient medium. The spore concentration was 10^6 per mL. The incubation time was 96 h at 25° C. Each sample was incubated on an incubation shaker at 120 rpm.
# Klebsiella pneumoniae = assay: MIC and synergy of MIT and BIT in Müller-Hinton broth, 72 h; settings: for growth of the microorganism: MIT ppm = row head c0; as to growth of the microorganism: key: growth of the microorganism took place (symbol '+'); or not (symbol '−')
# Method: as §1, §2
# The synergy of the two active substances MIT and BIT against the microorganism Klebsiella pneumoniae is shown as in example 1.
# (§3) The test batches again contained a Müller-Hinton broth as a nutrient medium. The cell density was 10^6 cells/mL. The incubation time was 72 h at 25° C. Each sample was incubated on an incubation shaker at 120 rpm.
# Pseudomonas stutzeri = assay: as above; settings: for growth of the microorganism: MIT ppm = row head c0; as to growth of the microorganism: key: growth of the microorganism took place (symbol '+'); or not (symbol '−')
# Method: as §1, §2
# The synergy of MIT and BIT against the microorganism Pseudomonas stutzeri is shown as in Example 1.
# as §3
# [2] = BIT share of the BIT/MIT mixture at MIC, 72 h
smiles,measurement,setting,value
"O=c1[nH]sc2ccccc12 [BIT, 1,2-benzisothiazolin-3-one]",bacterial attack,[1]; all tested concentrations 0.005-0.03% by wt,complete bacterial attack could be observed after the third inoculation at the latest
same,Bacterial growth (7 days + 48 h after 4th inoculation),[1]; biocide 0.005% by wt,(Growth already after 1st inoculation)
same,Bacterial growth (7 days + 48 h after 4th inoculation),[1]; biocide 0.01% by wt,(Growth already after #^st inoculation)
same,Bacterial growth (7 days + 48 h after 4th inoculation),[1]; biocide 0.015% by wt,(Growth already after 2nd inoculation)
same,Bacterial growth (7 days + 48 h after 4th inoculation),[1]; biocide 0.02% by wt,(Growth already after 2nd inoculation)
same,Bacterial growth (7 days + 48 h after 4th inoculation),[1]; biocide 0.03% by wt,(Growth already after 3rd inoculation)
same,MIC at Total concentration BIT + MIT Qa + Qb,Escherichia coli; 72 h,25 ppm
same,Qa/QA,Escherichia coli; 72 h,1.00
same,Synergy index Qa/QA + Qb/QB,"Escherichia coli; 72 h, method of Kull",1.00
same,growth of the microorganism,"Escherichia coli; BIT 1 ppm, 72 h",+
same,growth of the microorganism,"Escherichia coli; BIT 2.5 ppm, 72 h",+
same,growth of the microorganism,"Escherichia coli; BIT 5 ppm, 72 h",+
same,growth of the microorganism,"Escherichia coli; BIT 7.5 ppm, 72 h",+
same,growth of the microorganism,"Escherichia coli; BIT 10 ppm, 72 h",+
same,growth of the microorganism,"Escherichia coli; BIT 12.5 ppm, 72 h",+
same,growth of the microorganism,"Escherichia coli; BIT 15 ppm, 72 h",+
same,growth of the microorganism,"Escherichia coli; BIT 17.5 ppm, 72 h",+
same,growth of the microorganism,"Escherichia coli; BIT 20 ppm, 72 h",+
same,growth of the microorganism,"Escherichia coli; BIT 25 ppm, 72 h",−
same,growth of the microorganism,"Escherichia coli; BIT 30 ppm, 72 h",−
same,growth of the microorganism,"Escherichia coli; BIT 35 ppm, 72 h",−
same,MIC at BIT concentration Qa,Escherichia coli; [2],25 ppm
same,MIC value,"Escherichia coli; used alone, 72 h at 25° C.",25 ppm
same,MIC at Total concentration BIT + MIT Qa + Qb,Aspergillus niger; 96 h,750 ppm
same,Qa/QA,Aspergillus niger; 96 h,1.00
same,Synergy index Qa/QA + Qb/QB,Aspergillus niger; 96 h,1.00
same,growth of the microorganism,"Aspergillus niger; BIT 5 ppm, 96 h",+
same,growth of the microorganism,"Aspergillus niger; BIT 10 ppm, 96 h",+
same,growth of the microorganism,"Aspergillus niger; BIT 25 ppm, 96 h",+
same,growth of the microorganism,"Aspergillus niger; BIT 50 ppm, 96 h",+
same,growth of the microorganism,"Aspergillus niger; BIT 75 ppm, 96 h",+
same,growth of the microorganism,"Aspergillus niger; BIT 100 ppm, 96 h",−
same,growth of the microorganism,"Aspergillus niger; BIT 150 ppm, 96 h",−
same,MIC at BIT concentration Qa,"Aspergillus niger; share of the BIT/MIT mixture at MIC, 96 h",750 ppm
same,MIC value,"Aspergillus niger; used alone, 96 h at 25° C.",100 ppm
same,MIC at Total concentration BIT + MIT Qa + Qb,Klebsiella pneumoniae; 72 h,25 ppm
same,Qa/QA,Klebsiella pneumoniae; 72 h,1.00
same,Synergy index Qa/QA + Qb/QB,Klebsiella pneumoniae; 72 h,1.00
same,growth of the microorganism,"Klebsiella pneumoniae; BIT 1 ppm, 72 h",+
same,growth of the microorganism,"Klebsiella pneumoniae; BIT 2.5 ppm, 72 h",+
same,growth of the microorganism,"Klebsiella pneumoniae; BIT 5 ppm, 72 h",+
same,growth of the microorganism,"Klebsiella pneumoniae; BIT 7.5 ppm, 72 h",+
same,growth of the microorganism,"Klebsiella pneumoniae; BIT 10 ppm, 72 h",+
same,growth of the microorganism,"Klebsiella pneumoniae; BIT 15 ppm, 72 h",+
same,growth of the microorganism,"Klebsiella pneumoniae; BIT 20 ppm, 72 h",+
same,growth of the microorganism,"Klebsiella pneumoniae; BIT 25 ppm, 72 h",−
same,growth of the microorganism,"Klebsiella pneumoniae; BIT 30 ppm, 72 h",−
same,growth of the microorganism,"Klebsiella pneumoniae; BIT 35 ppm, 72 h",−
same,MIC at BIT concentration Qa,Klebsiella pneumoniae; [2],25 ppm
same,MIC value,"Klebsiella pneumoniae; used alone, 72 h at 25° C.",25 ppm
same,MIC at Total concentration BIT + MIT Qa + Qb,Pseudomonas stutzeri; 72 h,20 ppm
same,Qa/QA,Pseudomonas stutzeri; 72 h,1.00
same,Synergy index Qa/QA + Qb/QB,Pseudomonas stutzeri; 72 h,1.00
same,growth of the microorganism,"Pseudomonas stutzeri; BIT 0.5 ppm, 72 h",+
same,growth of the microorganism,"Pseudomonas stutzeri; BIT 1 ppm, 72 h",+
same,growth of the microorganism,"Pseudomonas stutzeri; BIT 2.5 ppm, 72 h",+
same,growth of the microorganism,"Pseudomonas stutzeri; BIT 5 ppm, 72 h",+
same,growth of the microorganism,"Pseudomonas stutzeri; BIT 7.5 ppm, 72 h",+
same,growth of the microorganism,"Pseudomonas stutzeri; BIT 10 ppm, 72 h",+
same,growth of the microorganism,"Pseudomonas stutzeri; BIT 15 ppm, 72 h",+
same,growth of the microorganism,"Pseudomonas stutzeri; BIT 20 ppm, 72 h",−
same,growth of the microorganism,"Pseudomonas stutzeri; BIT 25 ppm, 72 h",−
same,growth of the microorganism,"Pseudomonas stutzeri; BIT 30 ppm, 72 h",−
same,MIC at BIT concentration Qa,Pseudomonas stutzeri; [2],20 ppm
same,MIC value,"Pseudomonas stutzeri; used alone, 72 h at 25° C.",20 ppm
